Data reported in ChEMBL document CHEMBL1201862, “PubChem BioAssay data set” (2004).
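Results reflect a 48-hour exposure of cells in 96-well plates to compound at five concentrations. At the GI50, growth is halved.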 Active and inactive are the calls of the source. Cut-off read from the data, not from the text of the source: active = GI50 up to about 1.1 µM and inactive = higher.

Tests used:
Experiment in all cases: growth of human tumour cells (NCI), 48 h
A549 = tested on: A549
A498 = tested on: A498
NCI/ADR-RES = tested on: NCI/ADR-RES
OVCAR-5 = tested on: OVCAR-5
NCI-H226 = tested on: NCI-H226
NCI-H23 = tested on: NCI-H23
SK-MEL-5 = tested on: SK-MEL-5
MDA-MB-231 = tested on: MDA-MB-231
MOLT-4 = tested on: MOLT-4
M14 = tested on: M14
CCRF-CEM = tested on: CCRF-CEM
SK-MEL-2 = tested on: SK-MEL-2
SK-OV-3 = tested on: SK-OV-3
SNB-75 = tested on: SNB-75
MDA-MB-435 = tested on: MDA-MB-435
Malme-3M = tested on: Malme-3M
TK-10 = tested on: TK-10
HCC 2998 = tested on: HCC 2998
786-0 = tested on: 786-0
RXF 393 = tested on: RXF 393

Row | SMILES | GI50 (A549) | GI50 (A498) | GI50 (NCI/ADR-RES) | GI50 (OVCAR-5) | GI50 (NCI-H226) | GI50 (NCI-H23) | GI50 (SK-MEL-5) | GI50 (MDA-MB-231) | GI50 (MOLT-4) | GI50 (M14) | GI50 (CCRF-CEM) | GI50 (SK-MEL-2) | GI50 (SK-OV-3) | GI50 (SNB-75) | GI50 (MDA-MB-435) | GI50 (Malme-3M) | GI50 (TK-10) | GI50 (HCC 2998) | GI50 (786-0) | GI50 (RXF 393)
1 | O=C1CCC[C@H]2O[C@@H](COC(=O)c3ccccc3)C[C@H]2O1 | > 100 µM (inactive) | > 100 µM (inactive) | > 100 µM (inactive) | > 100 µM (inactive) | > 100 µM (inactive) | > 100 µM (inactive) | > 100 µM (inactive) | > 100 µM (inactive) | > 100 µM (inactive) | > 100 µM (inactive) | > 100 µM (inactive) | > 100 µM (inactive) | > 100 µM (inactive) | > 100 µM (inactive) | > 100 µM (inactive) | – | – | – | – | –
2 | O=C(CNC(=O)OCc1ccccc1)NCCCCC(NC(=O)OCc1ccccc1)C(=O)NC(CCCCNC(=O)CNC(=O)OCc1ccccc1)C(=O)OCc1ccccc1 (stereo unspecified) | > 62.5 µM (inactive) | > 62.5 µM (inactive) | – | > 62.5 µM (inactive) | > 62.5 µM (inactive) | > 62.5 µM (inactive) | > 62.5 µM (inactive) | > 62.5 µM (inactive) | > 62.5 µM (inactive) | > 62.5 µM (inactive) | > 62.5 µM (inactive) | > 62.5 µM (inactive) | – | > 62.5 µM (inactive) | > 62.5 µM (inactive) | > 62.5 µM (inactive) | > 62.5 µM (inactive) | > 62.5 µM (inactive) | > 62.5 µM (inactive) | –
3 | CC1CC(=O)N2CCCNC2=C1C#N (stereo unspecified) | > 100 µM (inactive) | – | > 100 µM (inactive) | – | > 100 µM (inactive) | > 100 µM (inactive) | > 100 µM (inactive) | > 100 µM (inactive) | > 100 µM (inactive) | > 100 µM (inactive) | > 100 µM (inactive) | > 100 µM (inactive) | > 100 µM (inactive) | > 100 µM (inactive) | > 100 µM (inactive) | > 100 µM (inactive) | > 100 µM (inactive) | > 100 µM (inactive) | > 100 µM (inactive) | > 100 µM (inactive)
4 | C=C(C[C@@H](O)[C@H](C)NC(=O)OCc1ccccc1)C(=O)OC(C)(C)C | > 100 µM (inactive) | > 100 µM (inactive) | 66.2 µM (inactive) | > 100 µM (inactive) | > 100 µM (inactive) | 45.6 µM (inactive) | 26.1 µM (inactive) | > 100 µM (inactive) | 46.2 µM (inactive) | > 100 µM (inactive) | 17.3 µM (inactive) | > 100 µM (inactive) | > 100 µM (inactive) | 79.8 µM (inactive) | 49.7 µM (inactive) | > 100 µM (inactive) | > 100 µM (inactive) | > 100 µM (inactive) | – | –
5 | N#C/C(=C/C=C/c1ccco1)C(N)=O | – | – | > 10 µM (inactive) | > 10 µM (inactive) | > 10 µM (inactive) | – | > 10 µM (inactive) | > 10 µM (inactive) | – | > 10 µM (inactive) | – | > 10 µM (inactive) | > 10 µM (inactive) | > 10 µM (inactive) | > 10 µM (inactive) | > 10 µM (inactive) | > 10 µM (inactive) | > 10 µM (inactive) | > 10 µM (inactive) | > 10 µM (inactive)
6 | Cn1c(=N)n[n+]([O-])c2ccccc21 | 11.7 µM (inactive) | – | – | 2.51 µM (inactive) | 13.4 µM (inactive) | 2.16 µM (inactive) | 1.59 µM (inactive) | 11.7 µM (inactive) | 1.87 µM (inactive) | 1.95 µM (inactive) | 4.24 µM (inactive) | 3.47 µM (inactive) | 22.9 µM (inactive) | 3.78 µM (inactive) | 0.877 µM (active) | 2.34 µM (inactive) | 27.2 µM (inactive) | 20.6 µM (inactive) | 8.2 µM (inactive) | 19.6 µM (inactive)
7 | COc1cc(/C=C2\C[C@H]3[C@@H]4CC=C5C[C@@H](OC(C)=O)CC[C@]5(C)[C@H]4CC[C@]3(C)\C2=N\O)cc(OC)c1OC | 4.69 µM (inactive) | – | 3.78 µM (inactive) | 15 µM (inactive) | 8.45 µM (inactive) | 5.7 µM (inactive) | 3.61 µM (inactive) | 15.1 µM (inactive) | 2.36 µM (inactive) | 5.73 µM (inactive) | 4.08 µM (inactive) | 7.01 µM (inactive) | 25.5 µM (inactive) | 2.5 µM (inactive) | 3.82 µM (inactive) | 8.95 µM (inactive) | 13.7 µM (inactive) | 16 µM (inactive) | 5.08 µM (inactive) | 0.942 µM (active)
8 | NC1c2c(Br)sc(N3CCCC3)c2C(=O)C1O (stereo unspecified) | > 50 µM (inactive) | > 50 µM (inactive) | > 50 µM (inactive) | > 50 µM (inactive) | > 50 µM (inactive) | > 50 µM (inactive) | > 50 µM (inactive) | 29.1 µM (inactive) | > 50 µM (inactive) | > 50 µM (inactive) | > 50 µM (inactive) | > 50 µM (inactive) | > 50 µM (inactive) | > 50 µM (inactive) | > 50 µM (inactive) | > 50 µM (inactive) | > 50 µM (inactive) | 36.6 µM (inactive) | > 50 µM (inactive) | –
9 | C[C@@H]1S[C@H](c2c(Cl)cccc2Cl)N2Cc3ccccc3N=C12 | > 100 µM (inactive) | > 100 µM (inactive) | – | > 100 µM (inactive) | – | > 100 µM (inactive) | > 100 µM (inactive) | > 100 µM (inactive) | > 100 µM (inactive) | > 100 µM (inactive) | > 100 µM (inactive) | > 100 µM (inactive) | > 100 µM (inactive) | > 100 µM (inactive) | > 100 µM (inactive) | – | > 100 µM (inactive) | > 100 µM (inactive) | > 100 µM (inactive) | > 100 µM (inactive)
10 | CSc1nc(=O)n(CCC#N)nc1SC | > 100 µM (inactive) | > 100 µM (inactive) | > 100 µM (inactive) | 41.8 µM (inactive) | 39.3 µM (inactive) | 55.3 µM (inactive) | 19.1 µM (inactive) | 19.2 µM (inactive) | 23.7 µM (inactive) | 18.7 µM (inactive) | – | 14.5 µM (inactive) | > 100 µM (inactive) | 51.5 µM (inactive) | 23.1 µM (inactive) | 15.2 µM (inactive) | 40.2 µM (inactive) | 15 µM (inactive) | 25.3 µM (inactive) | –
11 | C/C(=N\Nc1nc2ccccc2[nH]1)c1ccc2ccccc2n1 | 2.52 µM (inactive) | – | 1.85 µM (inactive) | 2.25 µM (inactive) | – | 3.89 µM (inactive) | 1.46 µM (inactive) | 1.87 µM (inactive) | 0.755 µM (active) | 1.24 µM (inactive) | 1.05 µM (active) | 1.67 µM (inactive) | 8.87 µM (inactive) | 2.19 µM (inactive) | 4.29 µM (inactive) | 2.4 µM (inactive) | 3.04 µM (inactive) | – | 1.9 µM (inactive) | 2.73 µM (inactive)
12 | NC1=NCC(CN2CCCCC2)O1 (stereo unspecified) | > 100 µM (inactive) | – | > 100 µM (inactive) | – | > 100 µM (inactive) | – | > 100 µM (inactive) | > 100 µM (inactive) | > 100 µM (inactive) | > 100 µM (inactive) | > 100 µM (inactive) | – | 4.12 µM (inactive) | > 100 µM (inactive) | > 100 µM (inactive) | > 100 µM (inactive) | > 100 µM (inactive) | – | > 100 µM (inactive) | > 100 µM (inactive)
